Results taken from paper PMC3003779 (Chemistry & biology, 2010).
Like-named read-outs stand apart in the source and are kept apart here.

Assays:
SHR and WKY rats [1] = experiment: mean arterial pressure and heart rate in anesthetized rats; assay type: in vivo, rat; conditions: for hypotensive effect: 0.3 mg/kg
CB1 receptor = CB1 receptor (Rattus norvegicus, UniProt P20272); experiment: HU210-stimulated [35S]GTPγS binding in brain membranes; assay type: biochemical; conditions: brain membrane preparations, SHR vs WKY
human recombinant FAAH = biological target: T1, human recombinant FAAH (Homo sapiens, UniProt O00519); experiment: biochemical; conditions: in vitro
T1 sequence (O00519 1-579): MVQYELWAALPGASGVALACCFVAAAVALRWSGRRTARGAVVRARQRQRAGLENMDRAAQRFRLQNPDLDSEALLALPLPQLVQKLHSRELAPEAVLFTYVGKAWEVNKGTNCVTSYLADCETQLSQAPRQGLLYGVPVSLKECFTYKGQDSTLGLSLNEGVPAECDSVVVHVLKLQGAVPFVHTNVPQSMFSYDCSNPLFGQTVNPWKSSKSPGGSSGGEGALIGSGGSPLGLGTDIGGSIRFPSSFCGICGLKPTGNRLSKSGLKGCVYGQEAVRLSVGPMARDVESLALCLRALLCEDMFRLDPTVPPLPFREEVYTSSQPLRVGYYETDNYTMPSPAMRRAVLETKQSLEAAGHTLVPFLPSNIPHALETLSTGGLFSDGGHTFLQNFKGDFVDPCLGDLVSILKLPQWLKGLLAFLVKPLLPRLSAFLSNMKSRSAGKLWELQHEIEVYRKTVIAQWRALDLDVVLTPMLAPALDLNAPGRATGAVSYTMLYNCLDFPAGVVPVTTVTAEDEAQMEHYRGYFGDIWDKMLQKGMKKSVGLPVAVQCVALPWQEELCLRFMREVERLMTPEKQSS

SHR and WKY rats [2] = experiment: non-fasting blood glucose in rats; conditions: 10 mg/kg i.p.
FAAH [3] = biological target: T2, FAAH (Mus musculus, UniProt O08914); assay type: cell-based
T2 sequence (O08914 1-579): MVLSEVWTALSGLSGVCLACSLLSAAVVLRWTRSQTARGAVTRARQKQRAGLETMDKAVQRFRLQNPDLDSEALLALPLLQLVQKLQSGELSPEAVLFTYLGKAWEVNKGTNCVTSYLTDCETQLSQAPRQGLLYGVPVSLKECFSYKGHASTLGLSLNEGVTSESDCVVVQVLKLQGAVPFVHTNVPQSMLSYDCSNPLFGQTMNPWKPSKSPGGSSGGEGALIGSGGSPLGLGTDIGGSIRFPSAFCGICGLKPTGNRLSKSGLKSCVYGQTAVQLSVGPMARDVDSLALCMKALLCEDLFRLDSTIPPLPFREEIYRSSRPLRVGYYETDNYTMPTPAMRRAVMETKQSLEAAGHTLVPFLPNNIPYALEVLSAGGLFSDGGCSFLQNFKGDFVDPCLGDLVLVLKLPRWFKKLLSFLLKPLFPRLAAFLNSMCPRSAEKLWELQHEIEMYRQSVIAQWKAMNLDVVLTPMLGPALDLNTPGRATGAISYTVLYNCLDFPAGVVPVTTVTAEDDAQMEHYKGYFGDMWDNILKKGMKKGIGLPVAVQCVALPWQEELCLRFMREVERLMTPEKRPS

FAAH [4] = biological target: T2, FAAH; experiment: in vivo; assay type: in vivo; conditions: mouse
[5] = test system: anandamide levels in hepatocytes; experiment: anandamide levels in hepatocytes; assay type: cell-based, mouse; conditions: 100 nM, dense suspension 40 mg/mL
FAAH [6] = biological target: T2, FAAH; experiment: FAAH activity in brain and liver homogenates, drug added in vitro; assay type: biochemical
[7] = test system: mice with diet-induced obesity; experiment: intraperitoneal glucose tolerance test in mice on high-fat diet; assay type: in vivo, mouse
Mouse hepatocytes = experiment: drug levels in hepatocyte suspensions by LC/MS/MS

Sequence of CB1 receptor (P20272 whole entry): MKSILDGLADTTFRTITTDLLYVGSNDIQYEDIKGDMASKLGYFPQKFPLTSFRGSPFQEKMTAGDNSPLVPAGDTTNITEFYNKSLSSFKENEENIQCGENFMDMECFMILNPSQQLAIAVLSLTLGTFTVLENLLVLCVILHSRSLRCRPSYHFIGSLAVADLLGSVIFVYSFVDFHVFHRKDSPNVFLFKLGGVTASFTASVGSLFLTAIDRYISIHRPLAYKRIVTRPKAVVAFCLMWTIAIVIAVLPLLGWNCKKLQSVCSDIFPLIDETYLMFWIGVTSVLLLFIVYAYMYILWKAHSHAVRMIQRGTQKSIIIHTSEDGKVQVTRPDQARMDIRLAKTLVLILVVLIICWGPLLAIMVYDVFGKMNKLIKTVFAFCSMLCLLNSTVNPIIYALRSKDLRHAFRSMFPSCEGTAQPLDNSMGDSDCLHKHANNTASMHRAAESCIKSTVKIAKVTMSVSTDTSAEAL

Cc1c(C(=O)NN2CCCCC2)nn(-c2ccc(Cl)cc2Cl)c1-c1ccc(I)cc1 [AM251]
effect on the effects of HU210 (SHR and WKY rats [1]; SHR and WKY): abolished | effect of pretreatment on the MAP and HR effects of AM3506 (SHR and WKY rats [1]; SHR, 3 mg/kg i.p. 60 min before 1 mg/kg AM3506 i.v.): prevented | acute reversal of the fully developed effects of AM3506 (SHR and WKY rats [1]; SHR, 3 mg/kg i.v. at the peak hypotensive response to 1 mg/kg AM3506): acutely reversed

CCCCCOc1ccc(C(=O)c2cccc3ccccc23)c2ccccc12 [CB13]
hypotensive effect (SHR and WKY rats [1]; SHR): −40±6 mmHg | hypotensive effect (SHR and WKY rats [1]; WKY): −36±10 mmHg

CCCCCCC(C)(C)c1cc(O)c2c(c1)OC(C)(C)[C@@H]1CC=C(CO)C[C@@H]21 [HU210]
hypotension, SHR compared with WKY (SHR and WKY rats [1]; 1 μg/kg i.v., anaesthetized rats): much greater hypotension in SHR than in WKY | CB1 receptor coupling efficiency, HU210-stimulated GTPγS labeling (CB1 receptor): dramatically increased

O=S(=O)(F)Cc1ccccc1 [PMSF, phenyl methyl sulfonyl fluoride, reference compound]
potency against human recombinant FAAH relative to AM3506 and URB597 (human recombinant FAAH): 3 orders of magnitude less potent

NC(=O)c1cccc(-c2cccc(OC(=O)NC3CCCCC3)c2)c1 [URB597, reference compound]
non-fasting blood glucose after treatment (SHR and WKY rats [2]; SHR, from 104.0±7.4): 144.0 ± 9.6 mg/dL | non-fasting blood glucose after treatment (SHR and WKY rats [2]; WKY, from 90.0±7.2): 135.3 ± 12.9 mg/dL | FAAH activity in cell pellet, dilute hepatocyte suspension (FAAH [3]): nearly completely blocked | FAAH activity in cells, dense hepatocyte suspension (FAAH [3]): rapidly and nearly completely blocked | suppression of FAAH activity in brain (FAAH [4]; in vivo, po, 10 mg/kg): 86±2% | suppression of FAAH activity in liver (FAAH [4]; in vivo, po, 10 mg/kg): 83±0.5% | ED50 (FAAH [4]; read-out: ID50, inhibition of brain FAAH activity): 0.22 mg/kg | ED50 (FAAH [4]; read-out: ID50, inhibition of liver FAAH activity): 0.45 mg/kg | anandamide levels in hepatocytes [5]: markedly increased | FAAH activity in tissue homogenates (FAAH [6]): equally effective in blocking FAAH activity in brain and liver | hypotensive/bradycardic potency, times less potent than AM3506 (SHR and WKY rats [1]; anesthetized SHR): ~ 40 times | ipGTT area under the curve (AUC) ([7]; liver-specific CB1 knockout (LCB1−/−) mice on HFD, vehicle 322±37): 337 ± 14 mg·h/dL | effect on glucose tolerance ([7]; liver-specific CB1−/− mice on HFD, 1.38 mg/kg): failed to affect glucose tolerance | effect on glucose tolerance ([7]; liver-specific CB1−/− mice on HFD, 10 mg/kg): remained ineffective | effect on glucose tolerance ([7]; male DIO mice, 1.38 mg/kg): marked increase in glucose intolerance | ipGTT area under the curve (AUC) ([7]; male DIO mice, 1.38 mg/kg i.p. 60 min before glucose, vehicle 352±28): 570 ± 45 mg·h/dL | effect on glucose tolerance ([7]; wild-type mice on HFD, 10 mg/kg, compared with the lower dose): same degree of glucose intolerance | recovery of drug from cell-free medium (Mouse hepatocytes; 0 to 30 min, no hepatocytes): remained constant | drug level in cell pellets, dense hepatocyte suspension (Mouse hepatocytes; 100 nM, 40 mg/mL): gradually declined over 10 min | drug level in medium, dense hepatocyte suspension (Mouse hepatocytes; 100 nM, 40 mg/mL): rapidly depleted from the medium | free drug (parent ion) still present in cell-free supernatant (Mouse hepatocytes; dilute hepatocyte suspension 1 mg/mL, 100 nM, 10 min, % of drug added at 0 min): 50–55%

Cc1c(C(=O)NN2CCCCC2)nn(-c2ccc(Cl)cc2Cl)c1-c1ccc(Cl)cc1 [rimonabant]
ΔHR, acute reversal of AM3506 effect (SHR and WKY rats [1]; SHR, 3 mg/kg, after AM3506): +129±14 bpm | ΔMBP, acute reversal of AM3506 effect (SHR and WKY rats [1]; SHR, 3 mg/kg, after AM3506): +101±9 mmHg
